Test systems include 786-0 renal; COLO 205 colon; HOP-92 NSCLC; HT29 colon; MOLT-4 leukemia; OVCAR-4 ovarian; RPMI-8226 leukemia; SN12C renal; SF-295 CNS.
Common to all, as to assay: NCI tumour cell line growth inhibition, 48 h

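Growth conditions: 96-well plates. Treatment: test compound, 48 hours, 5 concentrations. Analysis: linear interpolation between bracketing concentrations; unreached endpoints set to highest concentration. GI50 is the concentration that inhibits growth by half. At the TGI there is no net growth.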

Consider `O=C(N/C(=C\c1cccc([N+](=O)[O-])c1)c1nc2ccccc2[nH]1)c1ccccc1`, for which the TGI with 786-0 renal, in the test with COLO 205 colon, with HOP-92 NSCLC, in the test with HT29 colon, with MOLT-4 leukemia and with OVCAR-4 ovarian was greater than 100 µM in each case. Also, the TGI with RPMI-8226 leukemia and with SN12C renal was greater than 100 µM in each case.

Regarding `NC1CCCCC1N.O=C1C=C/C(=C(/c2ccc(O)c(Br)c2)c2ccccc2S(=O)(=O)[O-])C=C1Br.O=C1C=C/C(=C(/c2ccc(O)c(Br)c2)c2ccccc2S(=O)(=O)[O-])C=C1Br.[Pt+4]`, the GI50 in the test with 786-0 renal is 2.42 µM; with COLO 205 colon, 1.64 µM; with HOP-92 NSCLC it was greater than 100 µM; with HT29 colon it was 1.67 µM; with OVCAR-4 ovarian, 2.35 µM; in the test with RPMI-8226 leukemia it was 6.29 µM. The GI50 is 4.99 µM with SF-295 CNS and 3.59 µM with SN12C renal. In addition, the TGI in the test with 786-0 renal is greater than 100 µM; in the test with COLO 205 colon it was 40.6 µM; in the test with HOP-92 NSCLC, greater than 100 µM; in the test with HT29 colon it was greater than 100 µM; in the test on OVCAR-4 ovarian, greater than 100 µM; with RPMI-8226 leukemia, greater than 100 µM. The TGI with SF-295 CNS and in the test with SN12C renal was greater than 100 µM in each case.

With `CSc1ccc2c(cc1=O)[C@@H](NC(=O)c1ccc(Cl)cc1)CCc1cc(O)c(O)c(O)c1-2`, the TGI with 786-0 renal is greater than 100 µM; with COLO 205 colon, greater than 100 µM; with HOP-92 NSCLC, greater than 100 µM; in the test on HT29 colon it was greater than 100 µM; in the test with MOLT-4 leukemia, greater than 100 µM; with OVCAR-4 ovarian it was 82 µM. The TGI in the test with RPMI-8226 leukemia is 91.5 µM; in the test on SF-295 CNS it was greater than 100 µM; with SN12C renal, 75.8 µM.

Regarding `CCOC(=O)C(CCC(N)=O)(CCC(=O)OC)C(=O)OCC`, the TGI in the test with 786-0 renal, in the test with COLO 205 colon, with HOP-92 NSCLC, in the test with HT29 colon, in the test with MOLT-4 leukemia and in the test with OVCAR-4 ovarian was greater than 100 µM throughout. The TGI with RPMI-8226 leukemia, in the test with SF-295 CNS and in the test with SN12C renal was greater than 100 µM each time.

Turning to `COC(=O)c1ncc2c(=O)[nH]c3ccccc3c2c1C(=O)OC`, the TGI in the test on 786-0 renal, in the test on HOP-92 NSCLC, in the test on HT29 colon, in the test on MOLT-4 leukemia, in the test with OVCAR-4 ovarian and in the test on RPMI-8226 leukemia was greater than 100 µM in each case. Further, the TGI with SF-295 CNS and in the test on SN12C renal was greater than 100 µM throughout.

With `N#CCC(=O)N/N=C1/C(=O)N(c2cc(Cl)ccc2Cl)C(=O)C(=O)C1c1nc2ccccc2s1` (stereo not drawn), the TGI was greater than 100 µM in the test on 786-0 renal; greater than 100 µM in the test on COLO 205 colon; 83.1 µM with HOP-92 NSCLC; greater than 100 µM in the test on HT29 colon; greater than 100 µM in the test on MOLT-4 leukemia; greater than 100 µM in the test on OVCAR-4 ovarian. In addition, the TGI in the test on RPMI-8226 leukemia, in the test on SF-295 CNS and in the test with SN12C renal was greater than 100 µM each time.

As for `Cc1ccc(/C=C(\NC(=O)c2ccccc2)c2nc3ccccc3[nH]2)cc1`, the TGI in the test on 786-0 renal is greater than 100 µM; in the test with COLO 205 colon, greater than 100 µM; in the test with HOP-92 NSCLC it was 86.5 µM; in the test with HT29 colon, greater than 100 µM; in the test on OVCAR-4 ovarian it was greater than 100 µM; with SF-295 CNS, greater than 100 µM. The same compound gave a TGI in the test with SN12C renal greater than 100 µM.

Consider `COc1cc(CNCCN2C(=O)c3ccc4c5c(ccc(c35)C2=O)C(=O)N(CCNCc2cc(OC)c(OC)c(OC)c2)C4=O)cc(OC)c1OC`, for which the GI50 with 786-0 renal was 0.145 µM; in the test with COLO 205 colon it was 0.177 µM; in the test on OVCAR-4 ovarian it was 0.122 µM; in the test with SF-295 CNS it was 0.494 µM; with SN12C renal, 0.622 µM. The TGI in the test with 786-0 renal is 0.391 µM; with COLO 205 colon, 0.673 µM; in the test on OVCAR-4 ovarian, 0.398 µM; in the test on SF-295 CNS it was 1.3 µM; in the test on SN12C renal, 1.38 µM.

On to `COC(=O)[C@@]1(C)C(=O)CC[C@@H]1C=O`, for which the TGI in the test on 786-0 renal, in the test with COLO 205 colon, in the test on HT29 colon, in the test on MOLT-4 leukemia, in the test on OVCAR-4 ovarian and in the test with RPMI-8226 leukemia was greater than 100 µM each time. Further, the TGI in the test with SF-295 CNS and with SN12C renal was greater than 100 µM each time.

For `CCOc1cn(C2OC(CO)C(O)C2O)c(=O)[nH]c1=O` (stereo not drawn), the TGI in the test with 786-0 renal, in the test on COLO 205 colon, in the test on HOP-92 NSCLC, in the test on HT29 colon, in the test on MOLT-4 leukemia and with RPMI-8226 leukemia was greater than 100 µM throughout. Further, the TGI in the test on SF-295 CNS and in the test with SN12C renal was greater than 100 µM in each case.

Regarding `CC1=NN(C(=O)Nc2ccc(Cl)cc2)C(=O)C2CCC(=O)N12` (stereo not drawn), the TGI with 786-0 renal, with COLO 205 colon, in the test with HOP-92 NSCLC, in the test with MOLT-4 leukemia, with OVCAR-4 ovarian and in the test with RPMI-8226 leukemia was greater than 100 µM throughout. For the same compound, the TGI in the test on SF-295 CNS and with SN12C renal was greater than 100 µM throughout.

On to `O=C(CCc1ccccc1)NS(=O)(=O)c1ccccc1`, for which the TGI with 786-0 renal, in the test on COLO 205 colon, in the test with HOP-92 NSCLC, in the test with HT29 colon, with MOLT-4 leukemia and in the test on OVCAR-4 ovarian was greater than 100 µM each time. Further, the TGI with RPMI-8226 leukemia, in the test with SF-295 CNS and in the test on SN12C renal was greater than 100 µM each time.

On to `CC(=O)OCCOCNC(=S)N/N=C/c1cc([N+](=O)[O-])ccc1O`, for which the TGI with 786-0 renal, in the test on COLO 205 colon, in the test on HOP-92 NSCLC, with HT29 colon, in the test on OVCAR-4 ovarian and with SF-295 CNS was greater than 100 µM each time. Further, the TGI in the test on SN12C renal was greater than 100 µM.

With `CCOC(=O)C1=C(C)NC2=C(C(=O)N(c3ccccc3)C2c2ccccc2)C1c1ccccc1` (stereo not drawn), the TGI was determined as 35.8 µM with 786-0 renal; 33.5 µM in the test with COLO 205 colon; 25.8 µM with HOP-92 NSCLC; 37.2 µM with HT29 colon; 56.2 µM in the test with MOLT-4 leukemia; 53.4 µM with RPMI-8226 leukemia. In the test on SN12C renal, this compound registered a TGI of 35.8 µM.
